Experimental data published in US12257290B2, “PIC1 inhibition of myeloperoxidase oxidative activity in an animal model” (priority 2018, dated 2025).
Ends that are not written are not given here.

Legend:
human neutrophils = assay: Immune complex-activated serum-initiated NET formation by human neutrophils (fluorescence microscopy, PicoGreen free DNA); type: cell-based; conditions: for decrease of free DNA (PicoGreen): immune complex-activated sera + hydrogen peroxide
Protocol: Neutrophils from the blood of healthy volunteers were purified from heparinized blood by Hypaque-Ficoll step gradient centrifugation, dextran sedimentation, and hypotonic lysis, as previously described.
A Neutrophil Extracellular Trap assay was performed in a microtiter plate as follows. The formation of NETs was induced by incubating 2.0×10^5 neutrophils in a 96 well tissue culture plates with RPMI media alone, or adding 0.05% of H2O2, or 12 nM PMA, or 8 μg/ml MPO, or PA-dPEG24 at various concentrations. For immune complex sera induced NET formation, activated sera was made by adding 5 μl of ovalbumin-anti-ovalbumin immune complex to 5% NHS in 0.3 ml of GVBS^++. This combination was allowed to incubate for 30 minutes at 37° C., and then 0.05 ml was added to the neutrophils in RPMI. Cells were then incubated for 1.5 hours at 37° C. in 5% CO2 incubator.
NET formation was quantitatively assayed as follows. Free DNA was measured by PicoGreen in the supernatant recovered from the NET microtiter plate well assay. Five hundred units of […] (Fisher) were added to each well to allow for digestion of released extracellular DNA for 10 minutes in 37° C. incubator. The preparation was then aliquoted into an adjacent well and mixed 1:1 with prepared PICO green reagent (Fisher). The fluorescence was then quantified on a BioTek microplate reader at Excitation 485 nm/Emission 528 nm.
NET formation was assayed by fluorescence microscopy. […]
PA-dPEG24 inhibits immune complex-initiated NET formation by human neutrophils. A potential relationship between immune complex-initiated complement-activated human sera and NET formation by human neutrophils was evaluated. […] The immune complex-initiated complement-activated human sera was then incubated with purified human neutrophils resulting in NET formation quantified by free DNA measurement with PicoGreen. The relative contribution of immune complexes was initially evaluated by themselves compared with immune complex-initiated complement-activated human sera for generation of NETs. […]

[1] = system: complement activation in normal human serum (NHS); assay: Ovalbumin-antiovalbumin immune complex-initiated complement activation in normal human serum (C5a, iC3b, SC5b-9 ELISA); type: biochemical
Protocol: Immune complex activation of NHS was performed as follows. NHS was stimulated with three different types of immune complexes (IC) to induce complement activation. Heat-aggregated IgG was generated by incubating intravenous immune globulin at 50 mg/ml at 63° C. for 30 min [26]. Ovalbumin-antiovalbumin immune complexes were made by incubating 0.01 ml anti-ovalbumin antibody with an equal volume of ovalbumin, at 0.25 mg/nil, at 37° C. for 30 minutes and then storing at 4° C. overnight. C1 immune complexes were formed by incubating 0.02 ml anti-C1q goat sera with 5 μl of C1, at 200 μg/ml, at 30° C. for 30 minutes and then placing in an ice water bath. For C5a and C5b-9 assays, activation of NHS was performed by pre-incubating 5% NHS with titrating concentrations of PA-dPEG24 in 0.3 ml of GVBS^++ buffer for 30 minutes at room temperature. […]
ELISA was performed as follows. […] Colorimetric detection was performed with TMB, stopped with H2SO4 and read on a BioTek Synergy HT plate reader at 450 nm.
To provide confirmation of the results with heat-aggregated IgG, the antigen-antibody immune complex most often utilized in animal models of complement activation, ovalbumin and antiovalbumin [27, 28], was then tested. The ovalbumin-antiovalbumin immune complexes were used to stimulate complement activation in NHS and the same three effectors, C5a, iC3b and C5b-9, were measured. […]

IALILEPICCQERAA-dPEG24 (cysteine pairing not given here) [PA-dPEG24, 15-amino acid PEGylated peptide, 24 PEG moieties at the C-terminus]
decrease of free DNA (PicoGreen) (human neutrophils; 2.2 mM PA-dPEG24, P=0.037): 23%
decrease of free DNA (PicoGreen) (human neutrophils; 4.5 mM PA-dPEG24, P<0.001): 3 fold
NETs identified by fluorescence microscopy (human neutrophils; 5 mM PA-dPEG24, immune complex-initiated complement-activated sera): no NETs were identified
measured SC5b-9 ([1]; 2 mM PA-dPEG24): at the lower limit of detection
PA-dPEG24 concentration giving statistically significant inhibition of each complement effector (C5a, iC3b, C5b-9) ([1]; ovalbumin-antiovalbumin in NHS, P<0.03 vs immune complex alone): ≥ 0.25 mM
